Results on four molecules are retold here after publication PMC9555310, “Novel inhibitors and activity-based probes targeting serine proteases” (Frontiers in Chemistry, 2022).

For one assay, the target named is T1, neutrophil elastase (NE) (Homo sapiens, UniProt P08246).
T1 construct: purchased Calbiochem
T1 sequence (P08246 30-267): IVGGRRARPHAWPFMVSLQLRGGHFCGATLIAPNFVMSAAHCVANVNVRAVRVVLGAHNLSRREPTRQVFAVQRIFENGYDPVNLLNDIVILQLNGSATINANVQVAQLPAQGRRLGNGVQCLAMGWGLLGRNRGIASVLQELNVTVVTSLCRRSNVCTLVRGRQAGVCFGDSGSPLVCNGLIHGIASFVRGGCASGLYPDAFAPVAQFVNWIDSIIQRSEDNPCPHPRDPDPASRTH
The assay is described as follows: Off-target study, residual activity after 2 min pre-incubation: NE. The assay is classed as biochemical. The settings on record: 2 min incubation, PBS pH 7.4, 37°C; for off-target inhibition of neutrophil elastase: residual activity vs DMF control, NAP830 at concentrations up to 50 μM. The protocol: (§1) FIGURE 5 Results of “off-target“ studies. NAP849 (A), NAP800 (B) and NAP830 (C) were tested against trypsin, chymotrypsin, and NE. Samples (approx. 0.01 μg) of each protease were incubated with the indicated concentrations of test compound for 2 min, in PBS, pH 7.4, at 37°C. (D) NAP858, NAP962 and NAP849 were tested against cathepsin B at the indicated concentrations in 0.1 M MES, pH 6.1, containing 1 mM EDTA, for 2 min, at 37°C. Aliquots (approx. 10 μL) of each incubation sample were then added to a fresh sample (990 μL) of PBS for the serine proteases and MES for cathepsin B, containing the appropriate substrate for each protease, to measure their residual activity. Controls incubations were performed in the absence of test compound, but in the presence of an appropriate volume of DMF vehicle used to prepare stock solutions of each inhibitor under study.
(§2) Two elements were investigated regarding possible “off-target” effects–determining the extent of cross-reactivity of each of the new putative ABPs between the various serine protease family members and assessing their collateral inhibitory action against another mechanistic class–the cysteine proteases, using cathepsin B (CTSB) as an exemplar.
(§3) For assays requiring a pre-incubation step enzyme and inhibitor in assay buffer were incubated together, at 37 °C, for 2 min, with gentle agitation. The reaction mixture was then aliquoted (50 μL) in duplicate on a black 96-well microtitre plate followed by addition of substrate to make a final concentration of 50 μM in a total volume of 100 μL. The fluorescence production was then measured as described for the previous procedure.
(§4) Figure ST1. Results of “off-target” studies. NAP559 and NAP533 were tested against chymotrypsin, and NE. Samples (approx. 0.01 mg) of each protease were incubated with the indicated concentrations of test compound for 2 min, in PBS, pH 7.4, at 37 °C. Aliquots (approx. 10 µL) of each incubation sample were then added to a fresh sample (990 µL) of PBS containing the appropriate substrate for each protease, to measure their residual activity. Controls incubations were performed in the absence of test compound, but in the presence of an appropriate volume of DMF vehicle used to prepare stock solutions of each inhibitor under study.

Another assay deals with T2, chymotrypsin (Bos taurus, UniProt P00766).
T2 construct: purchased Sigma-Aldrich (supplement); Calbiochem; host or cells: bovine pancreas
As to the kind of experiment: Off-target study, residual activity after 2 min pre-incubation: chymotrypsin. It counts as biochemical, bovine. The settings on record: 2 min incubation, PBS pH 7.4, 37°C; for off-target inhibition of chymotrypsin: residual activity vs DMF control, NAP830 at concentrations up to 50 μM. The protocol:
as §1, §2, §3, §4

Regarding `N=C(N)NCCCN(CC(=O)N1CCC[C@H]1C(=O)N(CC(N)=O)Cc1ccccc1)C(=O)ON1C(=O)CCC1=O` [NAP559, Succinimidoyl-CO-NArg-D-Pro-NPhe-NH2], the “inhibition of NE” value against neutrophil elastase (NE) (highest concentration (50 μM)) is listed as < 5 % of control. The inhibition of chymotrypsin against chymotrypsin (highest concentration (50 μM)) is < 5 % of control.
`CC(C)N(CC(=O)NCC(=O)NCC(=O)NCCCOCCOCCOCCCNC(=O)CCCCC1SCC2NC(=O)NC21)C(=O)ON1C(=O)CCC1=O` (stereo not drawn) [NAP800, Succinimidoyl-CO-NVal-Gly-Gly-PEG-Biotin]: the “off-target inhibition of chymotrypsin” value at chymotrypsin is reported as “no “off-target” or collateral inhibition”.
Take `NCCCCN(CC(=O)NCC(=O)NCC(=O)NCCCOCCOCCOCCCNC(=O)CCCCC1SCC2NC(=O)NC21)C(=O)ON1C(=O)CCC1=O` (stereo not drawn) [NAP830, Succinimidoyl-CO-NLys-Gly-Gly-PEG-Biotin]: at neutrophil elastase (NE), the “off-target inhibition of neutrophil elastase” value is reported as “no “off-target” effects”. Further, the “off-target inhibition of chymotrypsin” value at chymotrypsin is given as “no “off-target” effects”.
Consider `O=C(CCCCC1SCC2NC(=O)NC21)NCCCOCCOCCOCCCNC(=O)CNC(=O)CNC(=O)CN(Cc1ccccc1)C(=O)ON1C(=O)CCC1=O` (stereo not drawn) [NAP849, Succinimidoyl-CO-NPhe-Gly-Gly-PEG-Biotin], for which, at neutrophil elastase (NE), the “off-target inhibition of neutrophil elastase” value was “complete absence of inhibition”.
